Measured values reported in ChEMBL document CHEMBL6153089, “Design, Synthesis, and Biological Evaluation of Thieno[3,2-d]pyrimidine Derivatives as the First Bifunctional PI3Kδ Isoform Selective/Bromodomain and Extra-Terminal Inhibitors” (J Med Chem, 2025).
pIC50: −log10 of the molar value. The source made the active and inactive calls. The calls are words filed in the database; no cut-off is given here.

Experiments:
[1] = target: PI3-kinase p110-delta/p85-alpha (Homo sapiens) (UniProt P27986+O00329); test: Inhibition of p110delta/p85alpha (unknown origin) at 100 nM incubated for 2 hrs in presence of ATP by ADP-kinaseGlo reagent based assay relative to control; format: protein-complex assay
[2] = target: Bromodomain-containing protein 4 (Homo sapiens, UniProt O60885); test: Inhibition of His-tagged BRD4-BD1 (unknown origin) at 10 nM incubated for 30 mins by Alphascreen assay relative to control
SU-DHL-6 [3] = test: Antiproliferative against activity human SU-DHL-6 cells assessed as inhibition of cell growth incubated for 72 hrs by Celltiter-luminescence analysis; format: functional, cell-based; details: SU-DHL-6, 72 h
SU-DHL-6 [4] = test: Antiproliferative activity against human SU-DHL-6 cells assessed as inhibition of cell proliferation by measuring reduction in cell count incubated for 6 days by photographic analysis; format: functional, cell-based; details: dose 12.5-50 nM, time 6.0 day
WI-38 = test: Cytotoxicity against human WI-38 cells assessed as effect on cell proliferation at 5 to 20 uM incubated for 72 hrs by Celltiter-luminescence analysis; format: toxicity, cell-based; details: wi-38, 72 h, dose 5-20 µM
SUD4 [5] = test: Induction of apoptosis in human SU-DHL-4 cells assessed as early apoptotic cells at 0.25 uM incubated for 24 hrs by Annexin V-FITC/PI staining based flow cytometric analysis (reference value: 25.3 %); format: functional
SUD4 [6] = test: Induction of apoptosis in human SU-DHL-4 cells assessed as early apoptotic cells at 1 uM incubated for 24 hrs by Annexin V-FITC/PI staining based flow cytometric analysis (reference value: 25.3 %); format: functional
SU-DHL-6 [7] = test: Induction of apoptosis in human SU-DHL-6 cells assessed as necrotic cells at 0.5 uM incubated for 24 hrs by Annexin V-FITC/PI staining based flow cytometric analysis (reference value: 0.246 %); format: functional
SU-DHL-6 [8] = test: Downregulation of c-Myc expression in human SU-DHL-6 cells at 0.25 to 1 uM incubated for 12 hrs by Western blot analysis; format: functional, cell-based; details: dose 0.25-1 µM
SUD4 [9] = test: Induction of apoptosis in human SU-DHL-4 cells assessed as decrease in Bcl-2 protein expression at 0.25 to 1 uM incubated for 12 hrs by Western blot analysis; format: functional, cell-based; details: dose 0.25-1 µM
[10] = Half-life in female BALB/c mouse at 1 mg/kg, iv measured after 12 hrs by LC-MS/MS analysis; format: ADME, organism-based; details: in vivo
[11] = AUC (0 to t) in female BALB/c mouse at 20 mg/kg, po measured after 24 hrs by LC-MS/MS analysis; format: ADME, organism-based; details: in vivo
[12] = Oral bioavailability in female BALB/c mouse at 20 mg/kg measured after 24 hrs by LC-MS/MS analysis; format: ADME, organism-based; details: in vivo
[13] = Toxicity in female BALB/c mouse model xenografted with human SU-DHL-6 cells assessed as effect on body weight at 20 mg/kg, po administered once daily via gavage for 15 days; format: organism-based; details: in vivo, 360 h, time 15 day
[14] = Toxicity in female BALB/c mouse model xenografted with human SU-DHL-6 cells assessed as effect on heart histopathology at 20 mg/kg, po administered once daily via gavage for 15 days by H and E staining based analysis; format: organism-based; details: in vivo, 360 h, time 15 day

In the case of Cn1cc(-c2nc(N3CCOCC3)c3sc(CN4CCC(C(C)(C)O)CC4)cc3n2)c2cc[nH]c2c1=O, the inhibition [1] was 41.6%, the inhibition [2] was 33.7% and the pIC50 (SU-DHL-6 [3]) was 7.21. The Activity (SU-DHL-6 [4]) was “Dose-dependent-effect; Stronger Effect Observed At Lower Concentration Than Those Of Sf2523”, the Activity (WI-38) was “Non-toxic” and the Activity (SUD4 [5]) was 32.4%. For the same compound, the Activity (SUD4 [6]) was 45.3%, the Activity (SU-DHL-6 [7]) was 0.67% and the Activity (SU-DHL-6 [8]) was “Active”. For the same compound, the Activity (SUD4 [9]) was “Active; Modest Effect Observed”, the half-life [10] was 2 h and the AUC(0-t) at 24 h [11] was 2190 ng·h/mL. The bioavailability [12] was 74.8%, the Activity [13] was “Non-toxic” and the Activity [14] was “Non-toxic”.
